Experimental data from patent US20230355647A1, “Marker for determining anti-cancer effects of mitochondrial oxidative phosphorylation pathway inhibitor” (NANJING SHIJIANG MEDICINE TECHNOLOGY CO., LTD, priority 2020, published 2023).
pIC50: −log10 of the molar value.

How the values were obtained:
BT-549 = experiment: Cell viability (CellTiter-Glo), BT-549; assay type: cell-based; conditions: Homo sapiens; BT-549 cell line, 3-4 days of culture
Method: (§1) Cell viability was detected using the Promega CellTiter-Glo kit, the kit reflected cell viability by directly measuring intracellular ATP content. The inhibitory effect (IC50 value) of Gboxin, a mitochondrial oxidative phosphorylation pathway inhibitor, on different tumor cell lines was tested in the Example. The name, source, and culture condition of each tumor cell line were as follows:
Cell line BT-549 (ATCC, No. HTB-122) was cultured in RPMI1640 medium containing 10% fetal bovine serum and 0.023 IU/ml human insulin (+P/S).
(§2) The above tumor cells were cultured in the relevant medium (+P/S), and incubated for 3 h, then the gradient diluted Gboxin was added, and IC50 (50% inhibiting concentration) was measured after 3-4 days of culture.

OCI-LY-19 = experiment: Cell viability (CellTiter-Glo), OCI-LY-19; assay type: cell-based; conditions: Homo sapiens, OCI-LY19; OCI-LY-19 cell line, 3-4 days of culture
Method: as §1
Cell line OCI-LY-19 (DSMZ, No. ACC-528) was cultured in 80-90% alpha-MEM medium containing 10-20% h.i. FBS (+P/S).
as §2

SW48 = experiment: Cell viability (CellTiter-Glo), SW48; assay type: cell-based; conditions: Homo sapiens; SW48 cell line, 3-4 days of culture
Method: as §1, with “follows: Cell line SW48 (ATCC, No. CCL-231) was cultured in 10% fetal bovine serum-containing Leibovitz's L-15 medium (+P/S). […] Cell viability was detected using the Promega CellTiter-Glo kit, the kit reflected cell viability by directly measuring intracellular ATP content.” for “follows:”

CHL-1 = experiment: Cell viability (CellTiter-Glo), CHL-1; assay type: cell-based; conditions: Homo sapiens; CHL-1 cell line, 3-4 days of culture
Method: as §1
Cell line CHL-1 (ATCC, No. CRL-9446) was cultured in 10% fetal bovine serum-containing DMEM medium (+P/S).
as §2

[1] = tested on: NCI-H82 cell with overexpression of NNMT protein and/or knockdown of DNMT1 expression; experiment: Sensitivity of NCI-H82 after NNMT overexpression and/or DNMT1 knockdown, intracellular ATP detection; assay type: cell-based, human; conditions: FIG. 21, FIG. 22
Excerpt: The NCI-H82 cell overexpressing NNMT protein was obtained by inserting the NNMT gene into NCI-H82 cell using a viral vector. The expression of DNMT1 in NCI-H82 cells was knocked down using shRNA transfection. The changes in sensitivity of cells to mitochondrial oxidative phosphorylation pathway inhibitors (Gboxin, Oligomycin A) was investigated using intracellular ATP detection methods after overexpression of NNMT protein and/or knockdown of DNMT1 expression. The experiment result was shown in FIG. 21 and FIG. 22, wherein, “Vector” referred to NCI-H82 cell transfected with empty virus as control group.

NCI-H1651 = experiment: Cell viability (CellTiter-Glo), NCI-H1651; assay type: cell-based; conditions: Homo sapiens; NCI-H1651 cell line, 3-4 days of culture
Method: as §1
Cell line NCI-H1651 (ATCC, No. CRL-5884) was cultured in 10% fetal bovine serum-containing ACL-4 medium (+P/S).
as §2

MDA-MB-231 = experiment: Cell viability (CellTiter-Glo), MDA-MB-231; assay type: cell-based; conditions: Homo sapiens; MDA-MB-231 cell line, 3-4 days of culture
Method: as §1
Cell line MDA-MB-231 (ATCC, No. HTB-26) was cultured in 10% fetal bovine serum-containing Leibovitz's L-15 medium (+P/S).
as §2

NCI-H1155 = experiment: Cell viability (CellTiter-Glo), NCI-H1155; assay type: cell-based; conditions: Homo sapiens; NCI-H1155 cell line, 3-4 days of culture
Method: as §1
Cell line NCI-H1155 (ATCC, No. CRL-5818) was cultured in serum-free ACL-4 medium (+P/S).
as §2

[2] = tested on: mitochondrial oxidative phosphorylation pathway; experiment: Oxygen consumption of NCI-H82 cell, Seahorse XFe metabolic analyzer; assay type: cell-based, human; conditions: 2 μM inhibitor, detection within 0.5 h, compared with control group, FIG. 1 (n=3)
Excerpt: The oxygen was mainly consumed by mitochondrial oxidative phosphorylation pathway in the cell, thus the determination of oxygen consumption rate (OCR) of mitochondria could directly reflect the activity of mitochondrial oxidative phosphorylation pathway. The oxygen consumption of NCI-H82 cell in the presence or absence of Oligomycin A, Gboxin, S-Gboxin and IACS-010759, mitochondrial oxidative phosphorylation pathway inhibitors, was detected using Seahorse XFe metabolic analyzer in the present Example. NCI-H82 cell (ATCC, No. […] The control group in absence of mitochondrial oxidative phosphorylation pathway inhibitor was set. The detection of cell oxygen consumption was finished within 0.5 h.

769-P = experiment: Cell viability (CellTiter-Glo), 769-P; assay type: cell-based; conditions: Homo sapiens; 769-P cell line, 3-4 days of culture
Method: as §1
Cell line 769-P (ATCC, No. CRL-1933) was cultured in 10% fetal bovine serum-containing RPMI1640 medium (+P/S).
as §2

AM-38 = experiment: Cell viability (CellTiter-Glo), AM-38; assay type: cell-based; conditions: Homo sapiens; AM-38 cell line, 3-4 days of culture
Method: as §1
Cell line AM-38 (JCRB, No. IF050492) was cultured in EMEM medium containing 20% heat-inactivated fetal bovine serum (+P/S).
as §2

HCC15 = experiment: Cell viability (CellTiter-Glo), HCC15; assay type: cell-based; conditions: HCC15 cell line, 3-4 days of culture
Method: as §1
Cell line HCC15 (KCLB, No. 70015) was cultured in 10% fetal bovine serum-containing RPMI1640 medium (+P/S).
as §2

ATN-1 = experiment: Cell viability (CellTiter-Glo), ATN-1; assay type: cell-based; conditions: Homo sapiens; ATN-1 cell line, 3-4 days of culture
Method: as §1
Cell line ATN-1 (RIKEN, No. RBRC-RCB1440) was cultured in RPMI1640 medium containing 10% fetal bovine serum and 0.1 mM NEAA (+P/S).
as §2

MJ = experiment: Cell viability (CellTiter-Glo), MJ; assay type: cell-based; conditions: Homo sapiens; MJ cell line, 3-4 days of culture
Method: as §1
Cell line MJ (ATCC, No. CRL-8294) was cultured 20% fetal bovine serum-containing IMDM medium (+P/S).
as §2

## CCc1n(CC(=O)O[C@@H]2C[C@H](C)CC[C@H]2C(C)C)c2ccccc2[n+]1C.[Cl-] [Gboxin]
BT-549
  pIC50: 5.48
OCI-LY-19
  pIC50: 5.60
SW48
  pIC50: 5.81
CHL-1
  pIC50: 5.11
[1]; DNMT1 expression knocked down (sh-DNMT1 #1 or sh-DNMT1 #2) vs Vector
  sensitivity of NCI-H82 cell to the inhibitor: decreased
[1]; NNMT overexpressed and DNMT1 knocked down simultaneously (ov-NNMT/sh-DNMT1 #1 and #2)
  sensitivity of NCI-H82 tumor cells to the inhibitor: decreased more significantly
[1]; NNMT protein overexpressed alone (ov-NNMT) vs Vector
  sensitivity of NCI-H82 cell to the inhibitor: decreased
NCI-H1651
  pIC50: 4.65
MDA-MB-231
  pIC50: 4.75
NCI-H1155
  pIC50: 5.05
[2]
  oxygen consumption of NCI-H82 cells: significantly inhibit
769-P
  pIC50: < 4.52
AM-38
  pIC50: 4.99
HCC15
  pIC50: 5.65
ATN-1
  pIC50: 5.81
MJ
  pIC50: 4.89
